Results published in patent publication US12172995B2, “Substituted indole and indazole compounds” (BRISTOL-MYERS SQUIBB COMPANY, priority 2018, dated 2024).

Experiments:
Type in all cases: cell-based
human TLR7 = molecular target: T1, human TLR7 (Homo sapiens, UniProt Q9NYK1); assay: TLR7 inhibition reporter assay (HEK-Blue SEAP); conditions: HEK-Blue cells overexpressing human TLR7, stimulated with gardiquimod 7.5 μM, 22 hour incubation
T1 construct: host or cells: HEK-Blue cells
T1 sequence (Q9NYK1 27-1049): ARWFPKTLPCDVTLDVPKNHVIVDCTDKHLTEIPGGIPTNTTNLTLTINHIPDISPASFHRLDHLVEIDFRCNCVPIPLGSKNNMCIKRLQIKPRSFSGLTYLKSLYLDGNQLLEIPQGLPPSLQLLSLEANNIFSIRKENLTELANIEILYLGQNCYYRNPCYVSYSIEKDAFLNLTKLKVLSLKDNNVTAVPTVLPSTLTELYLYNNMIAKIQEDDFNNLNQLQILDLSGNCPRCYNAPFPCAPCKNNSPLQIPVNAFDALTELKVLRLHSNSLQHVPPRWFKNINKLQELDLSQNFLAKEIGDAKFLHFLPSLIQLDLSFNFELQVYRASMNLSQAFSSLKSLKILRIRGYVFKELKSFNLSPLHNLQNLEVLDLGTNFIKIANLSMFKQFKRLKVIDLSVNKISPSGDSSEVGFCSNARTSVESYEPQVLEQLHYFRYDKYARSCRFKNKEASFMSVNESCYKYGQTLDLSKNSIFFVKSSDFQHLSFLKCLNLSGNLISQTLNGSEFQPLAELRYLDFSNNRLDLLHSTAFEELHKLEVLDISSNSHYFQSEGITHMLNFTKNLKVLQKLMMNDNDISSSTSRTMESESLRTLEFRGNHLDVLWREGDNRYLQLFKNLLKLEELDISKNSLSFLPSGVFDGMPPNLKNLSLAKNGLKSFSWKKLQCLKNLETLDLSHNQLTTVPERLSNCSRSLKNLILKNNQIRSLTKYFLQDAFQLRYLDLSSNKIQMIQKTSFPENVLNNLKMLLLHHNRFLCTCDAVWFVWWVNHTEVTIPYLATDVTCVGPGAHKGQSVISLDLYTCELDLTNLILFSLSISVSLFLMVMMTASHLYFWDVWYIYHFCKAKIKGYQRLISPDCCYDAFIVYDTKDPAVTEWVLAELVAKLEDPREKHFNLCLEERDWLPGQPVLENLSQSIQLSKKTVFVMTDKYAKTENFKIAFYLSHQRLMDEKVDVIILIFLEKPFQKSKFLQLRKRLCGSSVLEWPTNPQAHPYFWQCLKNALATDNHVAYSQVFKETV
In short: (§1)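 HEK-Blue cells overexpressing human TLR7, TLR8 or TLR9 with an NF-κB/AP-1-driven SEAP reporter were pre-treated 30 min at room temperature with compound (0.05 nM to 50 μM), then stimulated with gardiquimod 7.5 μM (TLR7), R848 15.9 μM (TLR8) or ODN2006 5 nM (TLR9). SEAP measured after 22 h at 37° C; inhibition normalized between agonist-plus-DMSO and reference-inhibitor wells.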

human TLR8 = molecular target: T2, human TLR8 (Homo sapiens, UniProt Q9NR97); assay: TLR8 inhibition reporter assay (HEK-Blue SEAP); conditions: HEK-Blue cells overexpressing human TLR8, stimulated with R848 15.9 μM, 22 hour incubation
T2 construct: host or cells: HEK-Blue cells
T2 sequence (Q9NR97 27-1041): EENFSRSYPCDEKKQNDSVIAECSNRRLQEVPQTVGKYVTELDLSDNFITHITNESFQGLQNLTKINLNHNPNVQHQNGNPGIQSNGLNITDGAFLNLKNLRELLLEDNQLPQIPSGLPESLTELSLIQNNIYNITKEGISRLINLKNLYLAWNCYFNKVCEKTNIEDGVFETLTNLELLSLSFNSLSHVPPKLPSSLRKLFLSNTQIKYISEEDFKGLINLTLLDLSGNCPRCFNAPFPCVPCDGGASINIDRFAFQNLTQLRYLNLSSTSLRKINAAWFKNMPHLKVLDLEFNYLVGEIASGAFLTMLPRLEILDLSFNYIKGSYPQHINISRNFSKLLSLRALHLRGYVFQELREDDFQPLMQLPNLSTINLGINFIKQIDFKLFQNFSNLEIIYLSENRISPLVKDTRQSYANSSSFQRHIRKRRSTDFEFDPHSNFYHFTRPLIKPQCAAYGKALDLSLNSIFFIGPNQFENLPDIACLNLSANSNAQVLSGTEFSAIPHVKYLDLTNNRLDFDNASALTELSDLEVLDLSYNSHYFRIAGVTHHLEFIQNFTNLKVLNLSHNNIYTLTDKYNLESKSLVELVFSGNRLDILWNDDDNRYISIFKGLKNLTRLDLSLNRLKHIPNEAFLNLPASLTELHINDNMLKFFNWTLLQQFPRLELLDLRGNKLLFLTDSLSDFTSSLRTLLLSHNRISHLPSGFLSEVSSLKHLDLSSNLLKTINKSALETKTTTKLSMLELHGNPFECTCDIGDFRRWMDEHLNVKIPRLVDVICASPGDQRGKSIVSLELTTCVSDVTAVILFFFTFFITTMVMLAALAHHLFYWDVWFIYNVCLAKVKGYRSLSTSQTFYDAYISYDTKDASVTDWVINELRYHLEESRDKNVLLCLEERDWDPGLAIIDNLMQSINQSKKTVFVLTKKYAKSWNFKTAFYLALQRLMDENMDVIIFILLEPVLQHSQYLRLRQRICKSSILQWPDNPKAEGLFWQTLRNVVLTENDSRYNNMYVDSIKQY
In short: as §1

human TLR9 = molecular target: T3, human TLR9 (Homo sapiens, UniProt Q9NR96); assay: TLR9 inhibition reporter assay (HEK-Blue SEAP); conditions: HEK-Blue cells overexpressing human TLR9, stimulated with ODN2006 5 nM, 22 hour incubation
T3 construct: host or cells: HEK-Blue cells
T3 sequence (Q9NR96 26-1032): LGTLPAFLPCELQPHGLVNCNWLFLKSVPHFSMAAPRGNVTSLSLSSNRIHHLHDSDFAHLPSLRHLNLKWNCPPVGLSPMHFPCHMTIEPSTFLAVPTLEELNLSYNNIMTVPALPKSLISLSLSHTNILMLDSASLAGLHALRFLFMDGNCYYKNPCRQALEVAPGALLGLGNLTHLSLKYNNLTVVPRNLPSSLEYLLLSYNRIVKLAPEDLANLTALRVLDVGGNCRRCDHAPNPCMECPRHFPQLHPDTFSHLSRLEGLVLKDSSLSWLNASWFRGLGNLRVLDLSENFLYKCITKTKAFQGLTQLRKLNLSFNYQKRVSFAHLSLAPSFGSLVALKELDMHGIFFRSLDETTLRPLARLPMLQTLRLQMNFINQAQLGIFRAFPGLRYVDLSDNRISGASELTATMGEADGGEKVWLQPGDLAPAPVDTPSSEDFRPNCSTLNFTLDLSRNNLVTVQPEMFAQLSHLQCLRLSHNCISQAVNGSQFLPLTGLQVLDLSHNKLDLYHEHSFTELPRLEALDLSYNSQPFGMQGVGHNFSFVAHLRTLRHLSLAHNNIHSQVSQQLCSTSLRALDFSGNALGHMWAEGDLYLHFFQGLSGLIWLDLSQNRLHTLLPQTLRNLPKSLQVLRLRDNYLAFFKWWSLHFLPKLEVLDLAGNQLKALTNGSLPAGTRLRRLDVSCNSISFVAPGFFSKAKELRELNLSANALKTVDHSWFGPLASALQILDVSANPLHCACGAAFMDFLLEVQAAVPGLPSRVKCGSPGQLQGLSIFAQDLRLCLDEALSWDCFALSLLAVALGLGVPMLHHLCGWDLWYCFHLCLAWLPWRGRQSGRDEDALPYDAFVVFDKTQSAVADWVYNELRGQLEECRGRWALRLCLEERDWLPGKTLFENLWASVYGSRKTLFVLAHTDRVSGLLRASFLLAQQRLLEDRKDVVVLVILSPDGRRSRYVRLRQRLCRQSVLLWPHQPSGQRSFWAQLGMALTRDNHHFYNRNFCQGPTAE
In short: as §1

Compound | IC50 (human TLR7) [nM] | IC50 (human TLR8) [nM] | IC50 (human TLR9) [nM]
Cc1cc(-c2cc3[nH]nc(C4CCC(N5CCC(S(C)(=O)=O)C5)CC4)c3cc2C(C)C)cn2ncnc12 (single isomer, unassigned) [Example 212, 6-(5-isopropyl-3-(4-(3-(methylsulfonyl)pyrrolidin-1-yl)cyclohexyl)-1H-indazol-6-yl)-8-methyl-[1,2,4]triazolo[1,5-a]pyridine] | 8.2 | 0.36 | 24100
Cc1cc(-c2cc(C)c3ncnn3c2)cc2[nH]nc(OC3CCC(NCC(=O)N(C)C)CC3)c12 (single isomer, unassigned) [Example 185, N,N-dimethyl-2-((4-((4-methyl-6-(8-methyl-[1,2,4]triazolo[1,5-a]pyridin-6-yl)-1H-indazol-3-yl)oxy)cyclohexyl)amino)acetamide] | 20.9 | 9.5 | 2770
Cc1cc(-c2ccc3c(C(=O)NC4CCNCC4)c[nH]c3c2)cn2ncnc12 [Example 198, 6-(8-methyl-[1,2,4]triazolo[1,5-a]pyridin-6-yl)-N-(piperidin-4-yl)-1H-indole-3-carboxamide] | 493 | 590 | 9210
Cc1cc2c(C3CCCN(CC(=O)N(C)C)C3)n[nH]c2cc1-c1cc(C)c2ncnn2c1 (stereo not drawn) [Example 57, N,N-dimethyl-2-(3-(5-methyl-6-(8-methyl-[1,2,4]triazolo[1,5-a]pyridin-6-yl)-1H-indazol-3-yl)piperidin-1-yl)acetamide] | 19.9 | 4.5 | 6900
Cc1cc2c(N)n[nH]c2cc1-c1cc(C)c2ncnn2c1 [Example 201, 5-methyl-6-(8-methyl-[1,2,4]triazolo[1,5-a]pyridin-6-yl)-1H-indazol-3-amine] | 857 | 55.7 | ≥ 50000
CCc1cc2c(C3CCN(C(=O)CCCN(C)C)CC3)n[nH]c2cc1-c1cc(C)c2ncnn2c1 [Example 107, 4-(dimethylamino)-1-(4-(5-ethyl-6-(8-methyl-[1,2,4]triazolo[1,5-a]pyridin-6-yl)-1H-indazol-3-yl)piperidin-1-yl)butan-1-one] | 10.3 | 1.7 | 16700
Cc1cc(-c2cc3[nH]nc(C4CCC(N5CC6(COC6)C5)CC4)c3cc2C(C)C)cn2ncnc12 (single isomer, unassigned) [Example 129, 6-(4-(5-isopropyl-6-(8-methyl-[1,2,4]triazolo[1,5-a]pyridin-6-yl)-1H-indazol-3-yl)cyclohexyl)-2-oxa-6-azaspiro[3.3]heptane] | 4.1 | 0.5 | 7550

The next compounds have a lower IC50 (human TLR7) than those just listed; values first:

IC50 (human TLR7) [nM] | IC50 (human TLR8) [nM] | IC50 (human TLR9) [nM] | Compound
1.1 | 0.6 | 7450 | Cc1cc(-c2cc3[nH]nc(C4CCC(N5CC(C)(O)C5)CC4)c3cc2C(C)C)cn2ncnc12 (stereo not drawn) [Example 153, 1-(4-(5-isopropyl-6-(8-methyl-[1,2,4]triazolo[1,5-a]pyridin-6-yl)-1H-indazol-3-yl)cyclohexyl)-3-methylazetidin-3-01]
0.5 | 0.1 | 6200 | CCCN1CCC(c2n[nH]c3cc(-c4cc(C)c5ncnn5c4)c(C(C)C)cc23)CC1 [Example 9, 6-(5-isopropyl-3-(1-propylpiperidin-4-yl)-1H-indazol-6-yl)-8-methyl-[1,2,4]triazolo[1,5-a] pyridine]
0.5 | 0.2 | 15900 | Cc1cc(-c2cc3[nH]nc(C4CCC(N5CC(C)(O)C5)CC4)c3cc2C(C)C)cn2ncnc12 (stereo not drawn) [Example 154, 1-(4-(5-isopropyl-6-(8-methyl-[1,2,4]triazolo[1,5-a]pyridin-6-yl)-1H-indazol-3-yl)cyclohexyl)-3-methylazetidin-3-01]
0.8 | 0.1 | 6110 | Cc1cc(-c2cc3[nH]nc(C4CCC(N5CC6(CCO6)C5)CC4)c3cc2C(C)C)cn2ncnc12 (stereo not drawn) [Example 156, 6-(4-(5-isopropyl-6-(8-methyl-[1,2,4]triazolo[1,5-a]pyridin-6-yl)-1H-indazol-3-yl)cyclohexyl)-1-oxa-6-azaspiro[3.3]heptane]
3.7 | 0.4 | 14500 | CCc1cc2c(C3CCN(CC(=O)N(C)C)CC3)n[nH]c2cc1-c1cc(C)c2ncnn2c1 [Example 91, 2-(4-(5-ethyl-6-(8-methyl-[1,2,4]triazolo[1,5-a]pyridin-6-yl)-1H-indazol-3-yl)piperidin-1-yl)-N,N-dimethylacetamide]
0.8 | 0.4 | 7480 | CCOC1CN(C2CCC(c3n[nH]c4cc(-c5cc(C)c6ncnn6c5)c(C(C)C)cc34)CC2)C1 (single isomer, unassigned) [Example 149, 6-(3-(4-(3-ethoxyazetidin-1-yl)cyclohexyl)-5-isopropyl-1H-indazol-6-yl)-8-methyl-[1,2,4]triazolo[1,5-a]pyridine]
